# ChEMBL document CHEMBL3596115, “Discovery of novel guanidinophenylpyrazole human acrosin inhibitors by molecular hybridization” (Medchemcomm, 2014)
# Test system: not listed separately
# Assay: Inhibition of pig trypsin
# Design: species or system Sus scrofa
row,IC50 [mM],SMILES
1,2.1,COc1ccc(OC)c(NC(=O)c2cc(-c3ccc(NC(=N)N)cc3)[nH]n2)c1

# Target: Acrosin (Homo sapiens, UniProt P10323)
# Assay: Inhibition of acrosin in human liquefied human semen using BAPNA incubated at 37.8 degC for 3 hrs by spectrophotometry
# Sequence of Acrosin (P10323 20-42 limits assumed): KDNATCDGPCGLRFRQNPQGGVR
# Sequence of Acrosin (P10323 43-343 limits assumed): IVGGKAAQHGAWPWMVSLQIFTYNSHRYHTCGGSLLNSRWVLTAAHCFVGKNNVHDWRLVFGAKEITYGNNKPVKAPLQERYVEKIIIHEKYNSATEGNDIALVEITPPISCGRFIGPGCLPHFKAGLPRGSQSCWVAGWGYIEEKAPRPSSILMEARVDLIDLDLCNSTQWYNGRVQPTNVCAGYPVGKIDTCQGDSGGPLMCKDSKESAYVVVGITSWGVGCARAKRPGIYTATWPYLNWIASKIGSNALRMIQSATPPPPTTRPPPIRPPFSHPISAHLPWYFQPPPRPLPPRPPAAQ
row,SMILES,IC50 [µM]
1,COC(=O)c1ccc(OC(=O)c2ccc(NC(=N)N)cc2)cc1,2.41
2,COc1ccc(NC(=O)c2cc(-c3ccc(NC(=N)N)cc3)[nH]n2)c(OC)c1,2.38
3,COc1ccc(OC)c(NC(=O)c2cc(-c3ccc(NC(=N)N)cc3)[nH]n2)c1,1.26
4,Cc1cccc(NC(=O)c2cc(-c3ccc(NC(=N)N)cc3)[nH]n2)c1,9.43
5,CCOC(=O)c1ccccc1NC(=O)c1cc(-c2ccc(NC(=N)N)cc2)[nH]n1,5.73
6,N=C(N)Nc1ccc(-c2cc(C(=O)Nc3ccc4c(c3)OCCO4)n[nH]2)cc1,25.4
7,Cc1ccccc1NC(=O)c1cc(-c2ccc(NC(=N)N)cc2)[nH]n1,10.9
8,Cc1cc(C)cc(NC(=O)c2cc(-c3ccc(NC(=N)N)cc3)[nH]n2)c1,9.46
9,Cc1cccc(NC(=O)c2cc(-c3ccc(NC(=N)N)cc3)[nH]n2)c1C,8.45
10,N=C(N)Nc1ccc(-c2cc(C(=O)Nc3cccc(C(F)(F)F)c3)n[nH]2)cc1,23.7
11,Cc1ccc(C)c(NC(=O)c2cc(-c3ccc(NC(=N)N)cc3)[nH]n2)c1,7.47
12,N=C(N)Nc1ccc(-c2cc(C(=O)Nc3cccc4ccccc34)n[nH]2)cc1,24.4
13,Cc1cccc(C)c1NC(=O)c1cc(-c2ccc(NC(=N)N)cc2)[nH]n1,4.32
14,COc1ccc(NC(=O)c2cc(-c3ccc(NC(=N)N)cc3)[nH]n2)cc1OC,3.44
15,N=C(N)Nc1ccc(-c2cc(C(=O)Nc3ccc(Nc4ccccc4)cc3)n[nH]2)cc1,26.8
16,COc1cccc(NC(=O)c2cc(-c3ccc(NC(=N)N)cc3)[nH]n2)c1,2.42
17,CCOC(=O)c1cc(-c2ccc(NC(=N)N)cc2)[nH]n1,> 100
18,N=C(N)Nc1ccc(-c2cc(C(=O)O)n[nH]2)cc1,> 100

# The next lines start with the values.
row,IC50 [µM],SMILES
1,24.5,N=C(N)Nc1ccc(-c2cc(C(=O)Nc3ccc(F)cc3)n[nH]2)cc1
2,15.1,N=C(N)Nc1ccc(-c2cc(C(=O)Nc3ccccc3)n[nH]2)cc1
3,11.3,COc1ccc(NC(=O)c2cc(-c3ccc(NC(=N)N)cc3)[nH]n2)cc1
4,17.7,N=C(N)Nc1ccc(-c2cc(C(=O)Nc3cccc(Cl)c3)n[nH]2)cc1
5,16.1,N=C(N)Nc1ccc(-c2cc(C(=O)Nc3ccc(Br)cc3)n[nH]2)cc1
6,23.9,N=C(N)Nc1ccc(-c2cc(C(=O)Nc3ccc(Cl)cc3)n[nH]2)cc1
7,25.9,CCN(CC)c1ccc(NC(=O)c2cc(-c3ccc(NC(=N)N)cc3)[nH]n2)cc1
8,13.1,N=C(N)Nc1ccc(-c2cc(C(=O)Nc3cccc(Br)c3)n[nH]2)cc1
9,5.87,CC(C)(C)c1ccc(NC(=O)c2cc(-c3ccc(NC(=N)N)cc3)[nH]n2)cc1
10,28.3,N=C(N)Nc1ccc(-c2cc(C(=O)Nc3ccc(O)cc3)n[nH]2)cc1
11,16.6,N=C(N)Nc1ccc(-c2cc(C(=O)Nc3ccc(C(F)(F)F)cc3)n[nH]2)cc1
